#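 These data come from cells grown in 96-well plates and exposed to compound for 48 hours at five concentrations. The concentration for 50% growth inhibition is given as GI50. Definition used: TGI = concentration required for complete inhibition of growth.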
# Experiments:
# Test in all cases: growth of human tumour cells (NCI), 48 h
# [1] = system: SF-295 CNS
# [2] = system: K-562 leukemia
# [3] = system: BT-549 breast
# [4] = system: NCI-H226 lung
# [5] = system: MALME-3M melanoma
# [6] = system: RPMI-8226 leukemia
# [7] = system: OVCAR-3 ovarian
# [8] = system: MDA-MB-435
# [9] = system: OVCAR-4 ovarian
# [10] = system: NCI-H23 lung
SMILES,TGI [1] [µM],TGI [2] [µM],TGI [3] [µM],TGI [4] [µM],TGI [5] [µM],TGI [6] [µM],TGI [7] [µM],TGI [8] [µM],TGI [9] [µM],TGI [10] [µM],GI50 [3] [µM],GI50 [4] [µM],GI50 [5] [µM],GI50 [7] [µM],GI50 [9] [µM],GI50 [1] [µM],GI50 [2] [µM],GI50 [6] [µM],GI50 [8] [µM],GI50 [10] [µM]
Cc1ccc(C(=O)Nc2ccc(CP(=O)(O)O)cc2CP(=O)(O)O)cc1N,> 100,> 100,> 100,> 100,> 100,> 100,> 100,> 100,> 100,> 100,–,–,–,–,–,–,–,–,–,–
CN(Cc1cnc2nc(N)nc(N)c2n1)c1ccc(C(=O)NC(CCC(=O)O)C(=O)O)c2ccccc12 (centres undefined),> 1000,> 1000,> 1000,> 1000,> 1000,> 1000,–,> 1000,> 1000,> 1000,> 1000,> 1000,> 1000,32.9,> 1000,–,–,–,–,–
O=C1Nc2noc(=O)nc2NO1,> 200,> 200,> 200,> 200,> 200,> 200,> 200,> 200,> 200,> 200,–,–,–,–,–,–,–,–,–,–
O=S(Nc1ccccc1)c1ccc(Cl)cc1 (centres undefined),> 100,> 100,> 100,> 100,> 100,> 100,> 100,> 100,> 100,> 100,–,–,–,–,–,–,–,–,–,–
O=C(N/N=C/c1ccccc1)c1c(F)c(F)c(F)c(F)c1F,> 100,> 100,> 100,> 100,> 100,> 100,> 100,> 100,> 100,> 100,–,–,–,–,–,–,–,–,–,–
CC1(C)C(=O)/C(=C/c2ccccc2)C(C)(C)C1(C)C,> 100,> 100,> 100,> 100,> 100,> 100,> 83.2,> 86.6,> 100,> 100,–,–,–,–,–,–,–,–,–,–
COc1cc(C=O)cc(C=Nc2ccc(Br)cc2)c1O,21.1,> 100,> 100,8.19,17.2,21.8,> 100,32.5,> 100,> 100,–,–,–,–,–,–,–,–,–,–
COC(=O)CCC(C)[C@H]1CCC2C3CC[C@@H]4CC5(CC[C@]4(C)C3C[C@H](OC(C)=O)[C@@]21C)OOC1(CCCCC1)OO5 (some centres undefined),> 100,> 100,> 100,> 100,60.3,10.8,> 100,37,> 100,> 100,–,–,–,–,–,–,–,–,–,–
COc1cc2c(cc1O)NC(=O)[C@@H]1C[C@@H](O)CN1C2=O,> 100,> 100,> 100,> 100,> 100,> 100,> 100,> 100,> 100,> 100,–,–,–,–,–,–,–,–,–,–
CCNC(=S)N/N=C(/C)c1cccc(/C(C)=N\NC(=S)NCC)n1,> 38.8,26.3,> 100,7.39,> 44.6,25.7,> 94,> 100,> 100,73.7,–,–,–,–,–,–,–,–,–,–
NC(=O)CSc1nc2ccccc2c(=O)n1N,> 100,> 100,> 100,> 100,> 100,> 100,> 100,> 100,> 100,> 100,–,–,–,–,–,–,–,–,–,–
CC(C)OC(=O)C(NC(=O)C(CC(=O)OCc1ccccc1)NC(=O)OCc1ccccc1)NC(=O)C1C(C)(C)CCC1(C)C (centres undefined),31.1,15.9,34.3,22.8,44.9,24.2,8.01,> 53.3,14.2,23.9,–,–,–,–,–,–,–,–,–,–
Cc1n[nH]c(=O)n1-n1cccc1,> 100,> 100,> 100,> 100,> 100,> 100,> 100,> 100,> 100,> 100,–,–,–,–,–,–,–,–,–,–
Cc1cc(NC(=O)NC(=O)c2ccccc2NC(=O)CN(C)C)ccc1Oc1ncc(Br)cn1,16.2,> 57.8,> 100,> 92.7,> 100,> 100,13.1,3.09,> 100,65.9,–,–,–,–,–,–,–,–,–,–
Clc1[nH]nc2ccccc12,> 100,> 100,> 100,> 100,> 100,> 100,> 100,> 100,> 100,> 100,–,–,–,–,–,–,–,–,–,–
BrC1(c2ccccc2)C[n+]2c(-c3ccccc3)cc(-c3ccccc3)cc2-c2ccccc21 (centres undefined),5.68,1.48,1.85,12.2,13.2,1.13,0.466,0.538,28,34.5,–,–,–,–,–,–,–,–,–,–
C/C(=N\NC(=S)NC(C)(C)C)c1nc2ncccc2[nH]1,> 100,> 100,20.3,13.9,60.4,> 100,> 100,> 78.4,> 100,> 100,–,–,–,–,–,–,–,–,–,–

SMILES,TGI [1] [µM],TGI [2] [µM],TGI [3] [µM],TGI [4] [µM],TGI [5] [µM],TGI [6] [µM],TGI [7] [µM],TGI [8] [µM],TGI [9] [µM],TGI [10] [µM],GI50 [3] [µM],GI50 [4] [µM],GI50 [5] [µM],GI50 [7] [µM],GI50 [9] [µM],GI50 [1] [µM],GI50 [2] [µM],GI50 [6] [µM],GI50 [8] [µM],GI50 [10] [µM]
CC(C)CNP(=O)(NCC(C)C)Oc1ccc(CC(NC(=O)OCc2ccccc2)C(=O)OCc2ccccc2)cc1 (centres undefined),98.4,59.4,52.4,> 100,34.9,40,16,22.8,36.5,32.3,–,–,–,–,–,–,–,–,–,–
COC(=O)c1c(O)ccc2c1c1c(n2Cc2ccc(OC)cc2)C(=O)c2ccccc2C1,> 100,> 100,> 100,> 100,> 100,31.5,> 100,> 100,> 100,> 100,–,–,–,–,–,–,–,–,–,–
CC(=O)Oc1cc2c(cc1OCC(F)(F)F)[C@H]1CC[C@]3(C)[C@@H](OC(C)=O)CC[C@H]3[C@@H]1CC2=O,88.3,> 100,> 77.7,> 100,47.9,68.8,45.6,> 72.1,63.8,> 68.8,–,–,–,–,–,–,–,–,–,–
COc1ccc(O[C@H](CO)C[C@@H]2COC(C)(C)O2)cc1,> 100,> 100,> 100,> 100,> 100,> 100,> 100,> 100,> 100,> 100,–,–,–,–,–,–,–,–,–,–
N#Cc1cc(F)cc(Oc2ccc(S(=O)(=O)C(F)F)c3c2CC(F)(F)[C@H]3O)c1,79.2,> 100,> 100,> 100,> 100,96.4,> 100,> 100,91.7,> 100,22.3,31.3,28.5,36.5,19,24.9,27.1,19.2,37.7,27.6
O=c1[nH]ncc2[nH]c3c(c12)CCc1ccccc1-3,> 100,> 100,> 100,40.7,> 100,70.7,> 100,> 100,> 100,> 100,–,–,–,–,–,–,–,–,–,–
O=C(O)[C@H]1NC[C@H]2C(Br)=NO[C@@H]12,> 100,> 100,> 100,> 100,> 100,> 100,> 100,> 100,> 100,> 100,–,–,–,–,–,–,–,–,–,–
Cn1c2c(c3c(=O)[nH]ncc31)Cc1ccccc1-2,25.7,> 100,60.5,61.9,44.5,69,41.2,35.1,> 100,> 100,–,–,–,–,–,–,–,–,–,–
O=c1[nH]c2c(Nc3c4ccccc4nc4ccccc34)c([N+](=O)[O-])c(Nc3c4ccccc4nc4ccccc34)c([N+](=O)[O-])c2[nH]1,12.8,11.7,20.6,6.3,3.33,8.27,6.87,7.29,10.1,2.74,–,–,–,–,–,–,–,–,–,–
C[C@H]1CCC/C=C/[C@@H]2C[C@H](OC3OC(CO)C(O)C(O)C3O)C[C@H]2[C@H](O)/C=C/C(=O)O1 (some centres undefined),> 100,> 100,> 100,> 100,33.1,> 100,> 100,> 100,> 100,> 100,–,–,–,–,–,–,–,–,–,–
Nc1c(C(=O)O)c2ccc([N+](=O)[O-])cc2c(=O)n1-c1nc2ccccc2s1,> 100,> 100,> 100,> 100,> 100,> 100,> 100,> 100,> 100,> 100,–,–,–,–,–,–,–,–,–,–
Cc1nnc(SCc2nc(C#N)c(C#N)nc2CSc2nnc(C)s2)s1,> 100,> 52.3,36.3,54.1,13,18,20.7,26.4,31.5,45,–,–,–,–,–,–,–,–,–,–
COc1cccc2c(=O)oc(-c3ccccc3C)nc12,88.9,> 100,48.2,57.8,> 100,> 100,> 100,> 100,70.6,> 100,–,–,–,–,–,–,–,–,–,–
CC(C)(NO)/C(=N\O)c1ccccc1,> 10,> 10,> 10,> 10,> 10,> 10,> 10,> 10,> 10,> 10,–,–,–,–,–,–,–,–,–,–
CC1(C)CCC[C@@]2(C)C1CC[C@@]1(CO)O[C@H](C3=CC(=O)OC3O)C[C@H]12 (some centres undefined),50.5,63.9,20.7,35.4,24.2,> 36.1,29.4,24.6,35.2,26.6,–,–,–,–,–,–,–,–,–,–
CC1=NC(=N)N=C(C)C1N=Nc1ccc2nc(C)[nH]c2c1 (centres undefined),> 100,> 100,> 100,> 100,> 100,> 100,> 100,> 100,> 100,> 100,–,–,–,–,–,–,–,–,–,–
